Laboratory results as given in patent publication US20140120232A1, “ACID TASTE/ACID SMELL-REDUCING AGENT” (T. HASEGAWA CO., LTD., priority 2011, published 2014).

Test: Sensory evaluation of Vermont drink containing the agent
Conditions: ten panels
Summary of the method: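 Tridecadienal or tridecatrienal isomers added at various concentrations to a Vermont-flavoured drink (apple-cider vinegar, honey, liquid sugar, citric acid, trisodium citrate, 100 mL total). Ten panelists assessed acid taste/acid smell and aldehyde-type off-odour, and the concentration giving the best acid taste/smell quality was selected.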

## CCCCC/C=C\C/C=C/CCC=O [(E,Z)-4,7-tridecadienal]
0.005 ppt
  A: number of panels, acid taste/acid smell extreme and cause irritation: 10
  B: number of panels, acid taste/acid smell slightly strong and slightly cause irritation: 0
  C: number of panels, acid taste/acid smell slightly unpleasant: 0
  Flavor judgment: number of panels who judged acid taste/acid smell quality the highest: 0
  N: number of panels, irritation of acid reduced to give a mild acid taste: 0
  X: number of panels, acid taste reduced but piercing odor characteristic to aldehydes unpleasant: 0
0.02 ppt
  A: number of panels, acid taste/acid smell extreme and cause irritation: 10
  B: number of panels, acid taste/acid smell slightly strong and slightly cause irritation: 0
  C: number of panels, acid taste/acid smell slightly unpleasant: 0
  Flavor judgment: number of panels who judged acid taste/acid smell quality the highest: 0
  N: number of panels, irritation of acid reduced to give a mild acid taste: 0
  X: number of panels, acid taste reduced but piercing odor characteristic to aldehydes unpleasant: 0
0.1 ppt
  A: number of panels, acid taste/acid smell extreme and cause irritation: 10
  B: number of panels, acid taste/acid smell slightly strong and slightly cause irritation: 0
  C: number of panels, acid taste/acid smell slightly unpleasant: 0
  Flavor judgment: number of panels who judged acid taste/acid smell quality the highest: 0
  N: number of panels, irritation of acid reduced to give a mild acid taste: 0
  X: number of panels, acid taste reduced but piercing odor characteristic to aldehydes unpleasant: 0
0.2 ppt
  A: number of panels, acid taste/acid smell extreme and cause irritation: 8
  B: number of panels, acid taste/acid smell slightly strong and slightly cause irritation: 2
  C: number of panels, acid taste/acid smell slightly unpleasant: 0
  Flavor judgment: number of panels who judged acid taste/acid smell quality the highest: 0
  N: number of panels, irritation of acid reduced to give a mild acid taste: 0
  X: number of panels, acid taste reduced but piercing odor characteristic to aldehydes unpleasant: 0
0.5 ppt
  A: number of panels, acid taste/acid smell extreme and cause irritation: 6
  B: number of panels, acid taste/acid smell slightly strong and slightly cause irritation: 3
  C: number of panels, acid taste/acid smell slightly unpleasant: 1
  Flavor judgment: number of panels who judged acid taste/acid smell quality the highest: 0
  N: number of panels, irritation of acid reduced to give a mild acid taste: 0
  X: number of panels, acid taste reduced but piercing odor characteristic to aldehydes unpleasant: 0
1 ppb
  A: number of panels, acid taste/acid smell extreme and cause irritation: 0
  B: number of panels, acid taste/acid smell slightly strong and slightly cause irritation: 0
  C: number of panels, acid taste/acid smell slightly unpleasant: 2
  Flavor judgment: number of panels who judged acid taste/acid smell quality the highest: 0
  N: number of panels, irritation of acid reduced to give a mild acid taste: 4
  X: number of panels, acid taste reduced but piercing odor characteristic to aldehydes unpleasant: 4
1 ppt
  A: number of panels, acid taste/acid smell extreme and cause irritation: 0
  B: number of panels, acid taste/acid smell slightly strong and slightly cause irritation: 4
  C: number of panels, acid taste/acid smell slightly unpleasant: 5
  Flavor judgment: number of panels who judged acid taste/acid smell quality the highest: 0
  N: number of panels, irritation of acid reduced to give a mild acid taste: 1
  X: number of panels, acid taste reduced but piercing odor characteristic to aldehydes unpleasant: 0
5 ppt
  A: number of panels, acid taste/acid smell extreme and cause irritation: 0
  B: number of panels, acid taste/acid smell slightly strong and slightly cause irritation: 1
  C: number of panels, acid taste/acid smell slightly unpleasant: 3
  Flavor judgment: number of panels who judged acid taste/acid smell quality the highest: 4
  N: number of panels, irritation of acid reduced to give a mild acid taste: 6
  X: number of panels, acid taste reduced but piercing odor characteristic to aldehydes unpleasant: 0
10 ppb
  A: number of panels, acid taste/acid smell extreme and cause irritation: 0
  B: number of panels, acid taste/acid smell slightly strong and slightly cause irritation: 0
  C: number of panels, acid taste/acid smell slightly unpleasant: 2
  Flavor judgment: number of panels who judged acid taste/acid smell quality the highest: 0
  N: number of panels, irritation of acid reduced to give a mild acid taste: 4
  X: number of panels, acid taste reduced but piercing odor characteristic to aldehydes unpleasant: 4
20 ppt
  A: number of panels, acid taste/acid smell extreme and cause irritation: 0
  B: number of panels, acid taste/acid smell slightly strong and slightly cause irritation: 0
  C: number of panels, acid taste/acid smell slightly unpleasant: 2
  Flavor judgment: number of panels who judged acid taste/acid smell quality the highest: 3
  N: number of panels, irritation of acid reduced to give a mild acid taste: 8
  X: number of panels, acid taste reduced but piercing odor characteristic to aldehydes unpleasant: 0
50 ppb
  A: number of panels, acid taste/acid smell extreme and cause irritation: 0
  B: number of panels, acid taste/acid smell slightly strong and slightly cause irritation: 0
  C: number of panels, acid taste/acid smell slightly unpleasant: 0
  Flavor judgment: number of panels who judged acid taste/acid smell quality the highest: 0
  N: number of panels, irritation of acid reduced to give a mild acid taste: 2
  X: number of panels, acid taste reduced but piercing odor characteristic to aldehydes unpleasant: 8
100 ppt
  A: number of panels, acid taste/acid smell extreme and cause irritation: 0
  B: number of panels, acid taste/acid smell slightly strong and slightly cause irritation: 1
  C: number of panels, acid taste/acid smell slightly unpleasant: 2
  Flavor judgment: number of panels who judged acid taste/acid smell quality the highest: 3
  N: number of panels, irritation of acid reduced to give a mild acid taste: 7
  X: number of panels, acid taste reduced but piercing odor characteristic to aldehydes unpleasant: 0
500 ppt
  A: number of panels, acid taste/acid smell extreme and cause irritation: 0
  B: number of panels, acid taste/acid smell slightly strong and slightly cause irritation: 1
  C: number of panels, acid taste/acid smell slightly unpleasant: 3
  Flavor judgment: number of panels who judged acid taste/acid smell quality the highest: 0
  N: number of panels, irritation of acid reduced to give a mild acid taste: 4
  X: number of panels, acid taste reduced but piercing odor characteristic to aldehydes unpleasant: 2
